Like-named read-outs stand apart in the source and are kept apart here.
System: PANC-1 cells
Experiment: cell viability assay in PANC-1 cells (compound alone, + 100 ng/ml TNFa, + 300 ng/ml TRAIL)
Format: cell-based
Conditions: Tables 6-10
[1] = Homo sapiens, PANC-1, compound alone, read-out: IC50 (μM) in cell viability assay in PANC-1 cells: Compound alone
[2] = with 100 ng/ml TNFa, read-out: IC50 (μM) in cell viability assay in PANC-1 cells: Compound + 100 ng/ml TNFa
[3] = with 300 ng/ml TRAIL, read-out: IC50 (μM) in cell viability assay in PANC-1 cells: Compound + 300 ng/ml TRAIL
[4] = compound alone, read-out: IC50 (μM) in cell viability assay in PANC-1 cells: Compound alone

Row | SMILES | IC50 [1] | IC50 [2] | IC50 [3] | IC50 [4]
1 | CN[C@@H](C)C(=O)N[C@H](C(=O)N1C[C@@H](NC(=O)c2cccc(C(=O)N[C@H]3C[C@@H](C(=O)N[C@H](C)Cc4ccccc4)N(C(=O)[C@@H](NC(=O)[C@H](C)NC)C(C)(C)C)C3)c2)C[C@H]1C(=O)NC(C)Cc1ccccc1)C(C)(C)C (stereo partly drawn) [Compound 10] | > 1 µM | 0.065 µM | 0.085 µM | –
2 | CN[C@@H](C)C(=O)N[C@H](C(=O)N1C[C@@H](NC(=O)c2cc(C(=O)N[C@H]3C[C@@H](C(=O)N[C@H](C)Cc4ccccc4)N(C(=O)[C@@H](NC(=O)[C@H](C)NC)C(C)(C)C)C3)[nH]n2)C[C@H]1C(=O)N[C@H](C)Cc1ccccc1)C(C)(C)C [Compound 11] | > 1 µM | 0.834 µM | 0.545 µM | –
3 | CN[C@@H](C)C(=O)N[C@@H](CC#CC#CC[C@H](NC(=O)[C@H](C)NC)C(=O)N1CCC[C@H]1CNC(=O)c1ccccc1)C(=O)N1CCC[C@H]1CNC(=O)c1ccccc1 [Compound 14] | > 1 µM | > 1 µM | > 1 µM | –
4 | CN[C@@H](C)C(=O)N[C@@H](CC#CC#CC[C@H](NC(=O)[C@H](C)NC)C(=O)N1CCC[C@H]1CNC(=O)c1ccccn1)C(=O)N1CCC[C@H]1CNC(=O)c1ccccn1 [Compound 15] | > 1 µM | 0.209 µM | 0.235 µM | –
5 | CN[C@@H](C)C(=O)N[C@@H](CCCCCC[C@H](NC(=O)[C@H](C)NC)C(=O)N1CCC[C@H]1CNC(=O)c1ccccc1)C(=O)N1CCC[C@H]1CNC(=O)c1ccccc1 [Compound 16] | > 1 µM | > 1 µM | > 1 µM | –
6 | CN[C@@H](C)C(=O)N[C@@H](CCCCCC[C@H](NC(=O)[C@H](C)NC)C(=O)N1CCC[C@H]1CNC(=O)c1ccccn1)C(=O)N1CCC[C@H]1CNC(=O)c1ccccn1 [Compound 17] | > 1 µM | > 1 µM | > 1 µM | –
7 | CN[C@@H](C)C(=O)N[C@@H](CCCCCC[C@H](NC(=O)[C@H](C)NC)C(=O)N1CCC[C@H]1CNC(=O)c1ccccc1O)C(=O)N1CCC[C@H]1CNC(=O)c1ccccc1O [Compound 20] | > 1 µM | > 1 µM | > 1 µM | –
8 | CN[C@@H](C)C(=O)N[C@@H](CCCCCC[C@H](NC(=O)[C@H](C)NC)C(=O)N1CCC[C@H]1c1ncc(C(=O)NC(c2ccccc2)c2ccccc2)o1)C(=O)N1CCC[C@H]1c1ncc(C(=O)NC(c2ccccc2)c2ccccc2)o1 [Compound 23] | > 1 µM | > 1 µM | > 1 µM | –
9 | CN[C@@H](C)C(=O)N[C@H](C(=O)N1C[C@@H](NC(=O)c2cccc(C(=O)N[C@H]3C[C@@H](C(=O)N[C@H](C)c4ccccn4)N(C(=O)[C@@H](NC(=O)[C@H](C)NC)C(C)(C)C)C3)c2)C[C@H]1C(=O)N[C@H](C)c1ccccn1)C(C)(C)C [Compound 25] | > 1 µM | 0.375 µM | 0.293 µM | –
10 | CN[C@@H](C)C(=O)N[C@H](C(=O)N1C[C@@H](NC(=O)c2cccc(C(=O)N[C@H]3C[C@@H](C(=O)N[C@H](C)c4ccccn4)N(C(=O)[C@@H](NC(=O)[C@H](C)NC)C(C)(C)C)C3)c2)C[C@H]1C(=O)N[C@H](C)c1ccccn1)C(C)(C)C [Compound 26] | – | > 1 µM | > 1 µM | > 1 µM
11 | CN[C@@H](C)C(=O)N[C@@H](CCCCCC[C@H](NC(=O)[C@H](C)NC)C(=O)N1CCC[C@H]1CNC(=O)c1cnccn1)C(=O)N1CCC[C@H]1CNC(=O)c1cnccn1 [Compound 30] | > 1 µM | > 1 µM | > 1 µM | –
12 | CN[C@@H](C)C(=O)N[C@@H](CCCCCC[C@H](NC(=O)[C@H](C)NC)C(=O)N1CCC[C@H]1CNC(=O)c1c(OC)cccc1OC)C(=O)N1CCC[C@H]1CNC(=O)c1c(OC)cccc1OC [Compound 35] | > 1 µM | > 1 µM | > 1 µM | –
13 | CN[C@@H](C)C(=O)N[C@@H](CCCCCC[C@H](NC(=O)[C@H](C)NC)C(=O)N1CCC[C@H]1CNC(=O)c1cc2ccccc2cc1OC)C(=O)N1CCC[C@H]1CNC(=O)c1cc2ccccc2cc1OC [Compound 38] | > 1 µM | > 1 µM | > 1 µM | –
14 | CN[C@@H](C)C(=O)N[C@@H](CCCCCC[C@H](NC(=O)[C@H](C)NC)C(=O)N1CCC[C@H]1c1ncc(C(=O)Nc2ccccc2)o1)C(=O)N1CCC[C@H]1c1ncc(C(=O)Nc2ccccc2)o1 [Compound 39] | > 1 µM | > 1 µM | > 1 µM | –
15 | CN[C@@H](C)C(=O)NC(C(=O)N1C[C@@H](NC(=O)c2cccc(C(=O)N[C@H]3CC(C(=O)N[C@@H]4CC5CCC4(C)C5(C)C)N(C(=O)[C@@H](NC(=O)[C@H](C)NC)C(C)(C)C)C3)c2)CC1C(=O)N[C@@H]1CC2CCC1(C)C2(C)C)C(C)(C)C (stereo partly drawn) [Compound 40] | > 1 µM | 0.555 µM | 0.517 µM | –
16 | CN[C@@H](C)C(=O)NC(C(=O)N1C[C@@H](NC(=O)c2cccc(C(=O)N[C@H]3CC(C(=O)N[C@H](C)c4cccc5ccccc45)N(C(=O)[C@@H](NC(=O)[C@H](C)NC)C(C)(C)C)C3)c2)CC1C(=O)NC(C)c1cccc2ccccc12)C(C)(C)C (stereo partly drawn) [Compound 41] | > 1 µM | 0.452 µM | 0.434 µM | –
17 | CN[C@@H](C)C(=O)NC(C(=O)N1C[C@@H](NC(=O)c2cccc(C(=O)N[C@H]3CC(C(=O)N[C@H](CO)[C@H](O)c4ccccc4)N(C(=O)[C@@H](NC(=O)[C@H](C)NC)C(C)(C)C)C3)c2)CC1C(=O)N[C@H](CO)[C@@H](O)c1ccccc1)C(C)(C)C (stereo partly drawn) [Compound 42] | > 1 µM | 0.753 µM | 0.645 µM | –
18 | CN[C@@H](C)C(=O)NC(C(=O)N1C[C@@H](NC(=O)c2cccc(C(=O)N[C@H]3CC(C(=O)N[C@H](CO)Cc4ccccc4)N(C(=O)[C@@H](NC(=O)[C@H](C)NC)C(C)(C)C)C3)c2)CC1C(=O)N[C@H](CO)Cc1ccccc1)C(C)(C)C (stereo partly drawn) [Compound 43] | > 1 µM | 0.05 µM | 0.048 µM | –
19 | CN[C@@H](C)C(=O)N[C@H](C(=O)N1C[C@@H](NC(=O)c2cccc(C(=O)N[C@H]3C[C@@H](C(=O)N[C@@H]4CCCc5ccc(OC)cc54)N(C(=O)[C@@H](NC(=O)[C@H](C)NC)C(C)(C)C)C3)c2)C[C@H]1C(=O)N[C@@H]1CCCc2ccc(OC)cc21)C(C)(C)C [Compound 44] | > 1 µM | 0.215 µM | 0.198 µM | –
20 | CN[C@@H](C)C(=O)N[C@H](C(=O)N1C[C@@H](NC(=O)c2cccc(C(=O)N[C@H]3C[C@@H](C(=O)N[C@@H]4CCCc5cc(OC)ccc54)N(C(=O)[C@@H](NC(=O)[C@H](C)NC)C(C)(C)C)C3)c2)C[C@H]1C(=O)N[C@@H]1CCCc2cc(OC)ccc21)C(C)(C)C [Compound 45] | > 1 µM | 0.008 µM | 0.014 µM | –
21 | CCC1(NC(=O)[C@@H]2C[C@H](NC(=O)c3cccc(C(=O)N[C@H]4C[C@@H](C(=O)NC5(CC)CCCc6ccccc65)N(C(=O)[C@@H](NC(=O)[C@H](C)NC)C(C)(C)C)C4)c3)CN2C(=O)[C@@H](NC(=O)[C@H](C)NC)C(C)(C)C)CCCc2ccccc21 (stereo partly drawn) [Compound 50] | > 1 µM | 0.236 µM | 0.122 µM | –
22 | CCC1(NC(=O)[C@@H]2C[C@H](NC(=O)c3cccc(C(=O)N[C@H]4C[C@@H](C(=O)NC5(CC)CCCc6ccccc65)N(C(=O)[C@@H](NC(=O)[C@H](C)NC)C(C)(C)C)C4)c3)CN2C(=O)[C@@H](NC(=O)[C@H](C)NC)C(C)(C)C)CCCc2ccccc21 (stereo partly drawn) [Compound 51] | – | 0.104 µM | 0.081 µM | > 1 µM
23 | CCC1(NC(=O)[C@@H]2C[C@H](NC(=O)c3cc(C(=O)N[C@H]4C[C@@H](C(=O)NC5(CC)CCCc6ccccc65)N(C(=O)[C@@H](NC(=O)[C@H](C)NC)C(C)(C)C)C4)[nH]n3)CN2C(=O)[C@@H](NC(=O)[C@H](C)NC)C(C)(C)C)CCCc2ccccc21 (stereo partly drawn) [Compound 52] | > 1 µM | 0.046 µM | 0.052 µM | –
24 | CN[C@@H](C)C(=O)N[C@H](C(=O)N1C[C@@H](NC(=O)c2cccc(C(=O)N[C@H]3C[C@@H](C(=O)N[C@H](C)C4OCCCO4)N(C(=O)[C@@H](NC(=O)[C@H](C)NC)C(C)(C)C)C3)c2)C[C@H]1C(=O)N[C@H](C)C1OCCCO1)C(C)(C)C [Compound 53] | > 1 µM | 0.466 µM | 0.227 µM | –
25 | CN[C@@H](C)C(=O)N[C@@H](CCCCCC[C@H](NC(=O)[C@H](C)NC)C(=O)N[C@H]1c2ccccc2C[C@@H]1NC(=O)c1cc2ccccc2cc1OC)C(=O)N[C@H]1c2ccccc2C[C@@H]1NC(=O)c1cc2ccccc2cc1OC [Compound 58] | > 1 µM | > 1 µM | > 1 µM | –
26 | CN[C@@H](C)C(=O)N[C@@H](CCCCCC[C@H](NC(=O)[C@H](C)NC)C(=O)N[C@H]1c2ccccc2C[C@@H]1NC(=O)c1c(OC)cccc1OC)C(=O)N[C@H]1c2ccccc2C[C@@H]1NC(=O)c1c(OC)cccc1OC [Compound 59] | > 1 µM | > 1 µM | > 1 µM | –
27 | CN[C@@H](C)C(=O)N[C@H](C(=O)N1C[C@@H](NC(=O)c2cccc(C(=O)N[C@H]3C[C@@H](C(=O)N[C@H](COC)[C@@H](C)OC)N(C(=O)[C@@H](NC(=O)[C@H](C)NC)C(C)(C)C)C3)c2)C[C@H]1C(=O)N[C@H](COC)[C@@H](C)OC)C(C)(C)C [Compound 69] | > 1 µM | > 1 µM | > 1 µM | –
28 | CN[C@@H](C)C(=O)N[C@H](C(=O)N1CCC[C@H]1Cn1ccnc1Cc1ccccc1)[C@@H](C)OCC#CC#CCO[C@H](C)[C@H](NC(=O)[C@H](C)NC)C(=O)N1CCC[C@H]1Cn1ccnc1Cc1ccccc1 [Compound 74] | > 1 µM | > 1 µM | > 1 µM | –
29 | CN[C@@H](C)C(=O)N[C@@H](CCCCCC[C@H](NC(=O)[C@H](C)NC)C(=O)N1CCC[C@H]1CNC(=O)Cc1ccccc1)C(=O)N1CCC[C@H]1CNC(=O)Cc1ccccc1 [Compound 77] | > 1 µM | > 1 µM | > 1 µM | –
30 | CN[C@@H](C)C(=O)N[C@@H](CCCCCC[C@H](NC(=O)[C@H](C)NC)C(=O)N1CCC[C@H]1CC(=O)N[C@H](C)c1ccccc1)C(=O)N1CCC[C@H]1CC(=O)N[C@H](C)c1ccccc1 [Compound 79] | > 1 µM | > 1 µM | > 1 µM | –

From patent US20130344026A1, “Dimeric Smac Mimetics” (priority 2009, published 2013)
